# Measurements published in PubChem BioAssay AID1963964 (Molecular Pharmacology Branch, DTP, NCI, 2024).
# System: 997726-040-R-J2-PDC tumor spheroids, viability
# Experiment: Anticancer human tumor 997726-040-R-J2-PDC patient-derived squamous cell lung carcinoma cell line growth inhibition [PI3K]
# Settings: spheroids with HUVEC and MSC; for viability, T/C: stronger effect = lower value
# Excerpt: Combinatorial screen of targeted agents with the PI3K inhibitors inavolisib, alpelisib, duvelisib, and copanlisib in multi-cell type tumor spheroids
# A high-throughput screen of multi-cell type tumor spheroids was designed to identify active combinations of targeted small molecules and PI3K pathway inhibitors. Complex spheroids include a stromal component modeled by human endothelial cells (HUVEC) and fibroblasts modeled by human mesenchymal stem cells (MSCs). The concentration ranges selected for each drug and investigational agent were based upon clinically achievable concentrations if the clinical Cmax of the agent was known.
# Compounds. The drugs and investigational agents: inavolisib (NSC800729), alpelisib (NSC765974), duvelisib (NSC772469), copanlisib (NSC816437), ipatasertib (NSC767898), afuresertib (NSC778305), talazoparib (NSC767125), sapanisertib (NSC764658), selumetinib (NSC741078), tovorafenib (DAY101, NSC766906), vemurafenib (NSC761431), ravoxertinib (NSC781343), sotorasib (NSC818433), MRTX1133 (NSC 836407), abemaciclib (NSC 768073), palbociclib (NSC758247), venetoclax (NSC 766270), SY5609 (NSC837396), enzalutamide (NSC755605), and darolutamide (NSC825331), were obtained from the National Cancer Institute (NCI) Developmental Therapeutics Program Chemical Repository. The FDA-approved anticancer drug set is available from the NCI Developmental Therapeutics Program. […] The stock solutions were prepared in dimethyl sulfoxide (DMSO, Sigma-Aldrich, St. Louis, MO, cat. D2650) at 800-fold the tested concentration and stored at -70 degrees C prior to their use. All drugs and investigational agents were tested over a range starting from a high concentration at or near the clinical Cmax and decreasing in half-log increments. If the clinical Cmax for an agent had not been determined, the highest concentration tested was 10 microM.
# Cell Culture. All cells were maintained in an incubator at 37 degrees C and 5% CO2 with 95% humidity. The PDC lines were cultured according to standard operating procedures established by the NCI PDMR (https://pdmr.cancer.gov/sops/default.htm). All PDCs were thawed and cultured in Matrigel-coated flasks prepared with a working solution of 1X Ham's F-12 nutrient mix, without supplementation (Invitrogen, Waltham, MA, cat. 11765054), 100 U/mL penicillin-streptomycin (Invitrogen, cat. 15140122), and 2.5% Matrigel (Corning Inc., Corning, NY, cat. 354248) for the first three passages. The 354836-022-R-J1-PDC, 475296-252-R-J1-PDC, and 997726-040-R-J2-PDC lines were cultured in 6A media, which includes advanced DMEM/F-12 (Thermo Fisher Scientific, cat. 12634028), 10 mM HEPES (Thermo Fisher Scientific, cat. 15630080), 1X GlutaMAX supplement (Thermo Fisher Scientific, cat. 35050061), 0.1 mg/mL primocin (InvivoGen, San Diego, CA, cat. ant-pm-2), 10% defined fetal bovine serum, heat inactivated (HyClone Laboratories Inc., Logan, UT, cat. SH30070.03HI), 50% L-WRN conditioned media (ATCC, cat. CRL-3276), 1.25 mM N-Acetyl-L-cysteine (Sigma-Aldrich, cat. A9165), 10 mM nicotinamide (Sigma-Aldrich, cat. N0636), 1X B-27 supplement (Thermo Fisher Scientific, cat. 17504044), 1X N-2 supplement (Thermo Fisher Scientific, cat. 17502048), and 10 microM Y-27632 dihydrochloride (Tocris Bioscience, Bristol, United Kingdom, cat. 1254). The 624824-186-R-J2-PDC line was cultured in 6C/Colon 1B media, which includes all 6A media components plus 50 ng/mL human EGF recombinant protein (Thermo Fisher Scientific, cat. PHG0311). […]
# [1] = curve of first compound, second compound 0.0316 µM
# [2] = curve of first compound, second compound 0.1 µM
# [3] = curve of first compound, second compound 0.316 µM
# [4] = curve of first compound, second compound 1 µM
# [5] = second compound 0.0316 µM, first compound 0.0316 µM
# [6] = second compound 0.0316 µM, first compound 0.1 µM
# [7] = second compound 0.0316 µM, first compound 0.316 µM
# [8] = second compound 0.0316 µM, first compound 1 µM
# [9] = second compound 0.0316 µM, first compound 3.16 µM
# [10] = second compound 0.0316 µM, first compound 10 µM
# [11] = second compound 0.1 µM, first compound 0.0316 µM
# [12] = second compound 0.1 µM, first compound 0.1 µM
# [13] = second compound 0.1 µM, first compound 0.316 µM
# [14] = second compound 0.1 µM, first compound 1 µM
# [15] = second compound 0.1 µM, first compound 3.16 µM
# [16] = second compound 0.1 µM, first compound 10 µM
# [17] = second compound 0.316 µM, first compound 0.0316 µM
# [18] = second compound 0.316 µM, first compound 0.1 µM
# [19] = second compound 0.316 µM, first compound 0.316 µM
# [20] = second compound 0.316 µM, first compound 1 µM
# [21] = second compound 0.316 µM, first compound 3.16 µM
# [22] = second compound 0.316 µM, first compound 10 µM
# [23] = second compound 1 µM, first compound 0.0316 µM
# [24] = second compound 1 µM, first compound 0.1 µM
# [25] = second compound 1 µM, first compound 0.316 µM
# [26] = second compound 1 µM, first compound 1 µM
# [27] = second compound 1 µM, first compound 3.16 µM
# [28] = second compound 1 µM, first compound 10 µM
# 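Note: spheroids exposed to compounds for seven days before readout.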
smiles,measurement,setting,value
C#Cc1c(F)ccc2cc(O)cc(-c3ncc4c(N5CC6CCC(C5)N6)nc(OCC56CCCN5CC(F)C6)nc4c3F)c12 (stereo unspecified) + COc1c(OCCCN2CCOCC2)ccc2c3n(c(=NC(=O)c4cnc(N)nc4)nc12)CCN3,IC50,"curve of first compound, second compound 0.00316 µM",> 10 µM
same,IC50,"curve of first compound, second compound 0.01 µM",5.11 µM
same,IC50,[1],< 0.0316 µM
same,IC50,[2],< 0.0316 µM
same,IC50,[3],< 0.0316 µM
same,IC50,[4],< 0.0316 µM
same,"viability, T/C","second compound 0.00316 µM, first compound 0.0316 µM",73.6%
same,"viability, T/C","second compound 0.00316 µM, first compound 0.1 µM",74.5%
same,"viability, T/C","second compound 0.00316 µM, first compound 0.316 µM",69.3%
same,"viability, T/C","second compound 0.00316 µM, first compound 1 µM",76%
same,"viability, T/C","second compound 0.00316 µM, first compound 3.16 µM",72%
same,"viability, T/C","second compound 0.00316 µM, first compound 10 µM",58.5%
same,"viability, T/C","second compound 0.01 µM, first compound 0.0316 µM",63.7%
same,"viability, T/C","second compound 0.01 µM, first compound 0.1 µM",57.6%
same,"viability, T/C","second compound 0.01 µM, first compound 0.316 µM",55.5%
same,"viability, T/C","second compound 0.01 µM, first compound 1 µM",57.2%
same,"viability, T/C","second compound 0.01 µM, first compound 3.16 µM",51.3%
same,"viability, T/C","second compound 0.01 µM, first compound 10 µM",47.1%
same,"viability, T/C",[5],36.1%
same,"viability, T/C",[6],35%
same,"viability, T/C",[7],30%
same,"viability, T/C",[8],32.6%
same,"viability, T/C",[9],28.7%
same,"viability, T/C",[10],27.7%
same,"viability, T/C",[11],23%
same,"viability, T/C",[12],21.7%
same,"viability, T/C",[13],20.9%
same,"viability, T/C",[14],22.2%
same,"viability, T/C",[15],20.1%
same,"viability, T/C",[16],17.6%
same,"viability, T/C",[17],4.68%
same,"viability, T/C",[18],5.65%
same,"viability, T/C",[19],4.53%
same,"viability, T/C",[20],4.98%
same,"viability, T/C",[21],4.96%
same,"viability, T/C",[22],3.97%
same,"viability, T/C",[23],1.7%
same,"viability, T/C",[24],1.08%
same,"viability, T/C",[25],1.16%
same,"viability, T/C",[26],0.96%
same,"viability, T/C",[27],0.92%
same,"viability, T/C",[28],0.86%
CC(C)n1nc(-c2ccc3oc(N)nc3c2)c2c(N)ncnc21,"viability, T/C",compound 0.000316 µM,91.5% [middle of 4 runs]
same,"viability, T/C",compound 0.001 µM,85% [middle of 4 runs]
same,"viability, T/C",compound 0.00316 µM,87.5% [middle of 4 runs]
same,"viability, T/C",compound 0.01 µM,68% [middle of 4 runs]
same,"viability, T/C",compound 0.0316 µM,50.7% [middle of 4 runs]
same,"viability, T/C",compound 0.1 µM,14.7% [middle of 4 runs]
same,IC50,curve of compound,28.8 nM [middle of 4 runs]
Cn1nccc1Nc1nccc(-c2ccn(C(CO)c3ccc(Cl)c(F)c3)c(=O)c2)n1 (stereo unspecified) + CC(Nc1ncnc2nc[nH]c12)c1cc2cccc(Cl)c2c(=O)n1-c1ccccc1,IC50,[1],> 10 µM
same,IC50,[2],> 10 µM
same,IC50,[3],> 10 µM
same,IC50,[4],> 10 µM
same,IC50,"curve of first compound, second compound 3.16 µM",> 10 µM
same,IC50,"curve of first compound, second compound 10 µM",0.0708 µM
same,"viability, T/C",[5],93.3%
same,"viability, T/C",[6],81.7%
same,"viability, T/C",[7],77.2%
same,"viability, T/C",[8],69.3%
same,"viability, T/C",[9],64.2%
same,"viability, T/C",[10],59.5%
same,"viability, T/C",[11],91.6%
same,"viability, T/C",[12],90.1%
same,"viability, T/C",[13],73.9%
same,"viability, T/C",[14],69.4%
same,"viability, T/C",[15],62.5%
same,"viability, T/C",[16],61.8%
same,"viability, T/C",[17],89.6%
same,"viability, T/C",[18],93.7%
same,"viability, T/C",[19],74%
same,"viability, T/C",[20],57.2%
same,"viability, T/C",[21],64.3%
same,"viability, T/C",[22],62.4%
same,"viability, T/C",[23],96.5%
same,"viability, T/C",[24],77.6%
same,"viability, T/C",[25],74.2%
same,"viability, T/C",[26],67.6%
same,"viability, T/C",[27],58.8%
same,"viability, T/C",[28],60.2%
same,"viability, T/C","second compound 3.16 µM, first compound 0.0316 µM",73.9%
same,"viability, T/C","second compound 3.16 µM, first compound 0.1 µM",62.7%
same,"viability, T/C","second compound 3.16 µM, first compound 0.316 µM",61.6%
same,"viability, T/C","second compound 3.16 µM, first compound 1 µM",55.6%
same,"viability, T/C","second compound 3.16 µM, first compound 3.16 µM",57.8%
same,"viability, T/C","second compound 3.16 µM, first compound 10 µM",48.2%
same,"viability, T/C","second compound 10 µM, first compound 0.0316 µM",56.2%
same,"viability, T/C","second compound 10 µM, first compound 0.1 µM",47.6%
same,"viability, T/C","second compound 10 µM, first compound 0.316 µM",37.2%
same,"viability, T/C","second compound 10 µM, first compound 1 µM",43.6%
same,"viability, T/C","second compound 10 µM, first compound 3.16 µM",40.4%
same,"viability, T/C","second compound 10 µM, first compound 10 µM",31.1%
